In patent US11285220B2, “Materials and methods relating to linkers for use in protein drug conjugates” (Iksuda Therapeutics Limited, priority 2014, dated 2022):

Assay: Reactivity of PL13 free acid with aspartic acid
Conditions: 10 equivalents Asp, pH 7.0, 18 hours, RT
Description: PL13 free acid was treated with 10 equivalents of aspartic acid (Asp) at pH 7.0 and at RT. Analysis was performed by RP-HPLC at gradient of 1% to 50% B over 15 minutes with detection at 254 nm.
50 μL of 2.61 mM PL13 free acid in methanol was mixed with […] of […] in buffer to give a final concentration of 0.42 mM PL13 free acid and 4.2 mM Asp.

## C=Cc1cc(C)nc(CCC(=O)O)c1 [PL13 free acid]
  stability in the presence of Asp: stable
